# Experimental data published in US12077503B2, “Substituted cyclic amides and their use as herbicides” (FMC CORPORATION, priority 2015, dated 2024).
# Key:
# Type in all cases: in vivo
# Kochia (Kochia scoparia) [1] = experiment: Test A preemergence; conditions: for Plant response rating, Kochia: 125 g ai/ha; for Kochia plant response rating (0 to 100 scale, 0 is no effect, 100 is complete control): visual injury approx. 10 d
# In short: (§1)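 Compounds were formulated in a non-phytotoxic solvent mixture with surfactant and applied as a preemergence directed soil spray after seeding, or sprayed postemergence over plants 2 to 10 cm tall at the one- to two-leaf stage. Evaluation after about 10 d compared treated with untreated controls, using a scale from 0 (no effect) to 100 (complete control).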
# [2] = tested on: barnyardgrass (Echinochloa crus-galli); experiment: Test A preemergence; conditions: for Plant response rating, Barnyardgrass: 125 g ai/ha; for Barnyardgrass plant response rating (0 to 100 scale, 0 is no effect, 100 is complete control): visual injury approx. 10 d
# In short: as §1
# [3] = tested on: giant foxtail (Setaria faberii); experiment: Test A preemergence; conditions: for Plant response rating, Foxtail, Giant: 125 g ai/ha; for Foxtail, Giant plant response rating (0 to 100 scale, 0 is no effect, 100 is complete control): visual injury approx. 10 d
# In short: as §1
# [4] = tested on: pigweed (Amaranthus retroflexus); experiment: Test A preemergence; conditions: for Plant response rating, Pigweed: 125 g ai/ha; for Pigweed plant response rating (0 to 100 scale, 0 is no effect, 100 is complete control): visual injury approx. 10 d
# [5] = tested on: ragweed (common ragweed, Ambrosia elatior); experiment: Test A preemergence; conditions: for Plant response rating, Ragweed: 125 g ai/ha; for Ragweed plant response rating (0 to 100 scale, 0 is no effect, 100 is complete control): visual injury approx. 10 d
# In short: as §1
# [6] = tested on: ryegrass, Italian (Italian ryegrass, Lolium multiflorum); experiment: Test A preemergence; conditions: for Plant response rating, Ryegrass, Italian: 125 g ai/ha; for Ryegrass, Italian plant response rating (0 to 100 scale, 0 is no effect, 100 is complete control): visual injury approx. 10 d
# In short: as §1
# [7] = tested on: Galium (catchweed bedstraw, Galium aparine); experiment: Test A postemergence
# In short: as §1
# Kochia (Kochia scoparia) [8] = experiment: Test A postemergence
# In short: as §1
# [9] = tested on: barnyardgrass (Echinochloa crus-galli); experiment: Test A postemergence
# In short: as §1
# [10] = tested on: blackgrass (Alopecurus myosuroides); experiment: Test A postemergence
# In short: as §1
# corn (Zea mays) = experiment: Test A postemergence
# In short: as §1
# [11] = tested on: giant foxtail (Setaria faberii); experiment: Test A postemergence
# In short: as §1
# [12] = tested on: pigweed (Amaranthus retroflexus); experiment: Test A postemergence
# In short: as §1
# [13] = tested on: ragweed (common ragweed, Ambrosia elatior); experiment: Test A postemergence
# In short: as §1
# [14] = tested on: ryegrass, Italian (Italian ryegrass, Lolium multiflorum); experiment: Test A postemergence
# In short: as §1
# [15] = tested on: wheat (Triticum aestivum); experiment: Test A postemergence
# In short: as §1
# [16] = tested on: barnyardgrass (Echinochloa crus-galli); experiment: Test B flooded paddy test; conditions: Flood, 250 g ai/ha; 0 to 100 scale where 0 is no effect and 100 is complete control; 13 to 15 d
# In short: (§2)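 Plants at 2-leaf stage flooded to 3 cm above soil, with compounds applied directly to paddy water and that depth maintained. Plants kept in greenhouse 13–15 d. Visual rating versus controls on a 0 (no effect) to 100 (complete control) scale.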
# [17] = tested on: ducksalad (Heteranthera limosa); experiment: Test B flooded paddy test; conditions: Flood, 250 g ai/ha; 0 to 100 scale where 0 is no effect and 100 is complete control; 13 to 15 d
# In short: as §2
# rice (Oryra sativa) = experiment: Test B flooded paddy test; conditions: Flood, 250 g ai/ha; 0 to 100 scale where 0 is no effect and 100 is complete control; 13 to 15 d
# In short: as §2
# [18] = tested on: sedge, umbrella (small-flower umbrella sedge, Cyperus difformis); experiment: Test B flooded paddy test; conditions: Flood, 250 g ai/ha; 0 to 100 scale where 0 is no effect and 100 is complete control; 13 to 15 d
# In short: as §2
# [19] = preemergence, 0 to 100 scale (0 no effect, 100 complete control)
# [20] = 125 g ai/ha, postemergence, visual injury rating on 0 to 100 scale (0 no effect, 100 complete control), approx. 10 d
# [21] = 500 g ai/ha, postemergence, 0 to 100 scale, 0 no effect, 100 complete control
# [22] = Preemergence, 500 g ai/ha, 0 is no effect, 100 is complete control
# [23] = Postemergence, 125 g ai/ha, visual injury, 0 to 100 scale (0 no effect, 100 complete control), approx. 10 d
# [24] = Preemergence, visual injury after approximately 10 d, 0 to 100 scale where 0 is no effect and 100 is complete control
# [25] = 125 g ai/ha, postemergence, visual rating after approx. 10 d, 0 to 100 scale (0 no effect, 100 complete control)
# [26] = Postemergence, 500 g ai/ha, 0 to 100 scale where 0 is no effect and 100 is complete control
structure (smiles),measurement,setting,value
COc1c(F)ccc(NC(=O)C2C(=O)N(C)CC2c2cccc(OC(F)(F)C(F)F)c2)c1F (stereo not drawn) [Compound 430],"Plant response rating, Kochia",Kochia (Kochia scoparia) [1]; [19],30
same,"Kochia plant response rating (0 to 100 scale, 0 is no effect, 100 is complete control)","Kochia (Kochia scoparia) [1]; Preemergence, 500 g ai/ha",70
same,"Plant response rating, Barnyardgrass",[2]; [19],80
same,"Barnyardgrass plant response rating (0 to 100 scale, 0 is no effect, 100 is complete control)","[2]; Preemergence, 500 g ai/ha",90
same,"Plant response rating, Foxtail, Giant",[3]; [19],90
same,"Foxtail, Giant plant response rating (0 to 100 scale, 0 is no effect, 100 is complete control)","[3]; Preemergence, 500 g ai/ha",90
same,"Plant response rating, Pigweed",[4]; [19],0
same,"Pigweed plant response rating (0 to 100 scale, 0 is no effect, 100 is complete control)","[4]; Preemergence, 500 g ai/ha",50
same,"Plant response rating, Ragweed",[5]; [19],30
same,"Ragweed plant response rating (0 to 100 scale, 0 is no effect, 100 is complete control)","[5]; Preemergence, 500 g ai/ha",50
same,"Plant response rating, Ryegrass, Italian",[6]; [19],40
same,"Ryegrass, Italian plant response rating (0 to 100 scale, 0 is no effect, 100 is complete control)","[6]; Preemergence, 500 g ai/ha",50
same,Galium plant response rating,[7]; [20],50
same,"Plant response rating, Galium",[7]; [21],60
same,Kochia plant response rating,Kochia (Kochia scoparia) [8]; [20],20
same,"Plant response rating, Kochia",Kochia (Kochia scoparia) [8]; [21],50
same,Barnyardgrass plant response rating,[9]; [20],80
same,"Plant response rating, Barnyardgrass",[9]; [21],90
same,Blackgrass plant response rating,[10]; [20],20
same,"Plant response rating, Blackgrass",[10]; [21],70
same,Corn plant response rating,corn (Zea mays); [20],50
same,"Plant response rating, Corn",corn (Zea mays); [21],70
same,"Foxtail, Giant plant response rating",[11]; [20],80
same,"Plant response rating, Foxtail, Giant",[11]; [21],80
same,Pigweed plant response rating,[12]; [20],30
same,"Plant response rating, Pigweed",[12]; [21],50
same,Ragweed plant response rating,[13]; [20],0
same,"Plant response rating, Ragweed",[13]; [21],30
same,"Ryegrass, Italian plant response rating",[14]; [20],30
same,"Plant response rating, Ryegrass, Italian",[14]; [21],50
same,Wheat plant response rating,[15]; [20],20
same,"Plant response rating, Wheat",[15]; [21],50
same,"Plant response rating, Barnyardgrass",[16],65
same,"Plant response rating, Ducksalad",[17],100
same,"Plant response rating, Rice",rice (Oryra sativa),20
same,"Plant response rating, Sedge, Umbrella",[18],0
Cc1ccc(C2CNC(=O)C2C(=O)Nc2ccccc2F)cc1F (racemic) [Compound 368],"Plant response rating, Kochia",Kochia (Kochia scoparia) [1]; [19],0
same,Kochia plant response rating (0 to 100 scale),Kochia (Kochia scoparia) [1]; [22],30
same,"Plant response rating, Barnyardgrass",[2]; [19],90
same,Barnyardgrass plant response rating (0 to 100 scale),[2]; [22],90
same,"Plant response rating, Foxtail, Giant",[3]; [19],90
same,"Foxtail, Giant plant response rating (0 to 100 scale)",[3]; [22],90
same,"Plant response rating, Pigweed",[4]; [19],0
same,Pigweed plant response rating (0 to 100 scale),[4]; [22],0
same,"Plant response rating, Ragweed",[5]; [19],30
same,Ragweed plant response rating (0 to 100 scale),[5]; [22],60
same,"Plant response rating, Ryegrass, Italian",[6]; [19],0
same,"Ryegrass, Italian plant response rating (0 to 100 scale)",[6]; [22],30
same,"Plant response rating, Galium",[7]; [21],50
same,"Plant response rating, Galium",[7]; [23],30
same,"Plant response rating, Kochia",Kochia (Kochia scoparia) [8]; [21],0
same,"Plant response rating, Kochia",Kochia (Kochia scoparia) [8]; [23],0
same,"Plant response rating, Barnyardgrass",[9]; [21],90
same,"Plant response rating, Barnyardgrass",[9]; [23],90
same,"Plant response rating, Blackgrass",[10]; [21],60
same,"Plant response rating, Blackgrass",[10]; [23],0
same,"Plant response rating, Corn",corn (Zea mays); [21],20
same,"Plant response rating, Corn",corn (Zea mays); [23],0
same,"Plant response rating, Foxtail, Giant",[11]; [21],80
same,"Plant response rating, Foxtail, Giant",[11]; [23],20
same,"Plant response rating, Pigweed",[12]; [21],0
same,"Plant response rating, Pigweed",[12]; [23],0
same,"Plant response rating, Ragweed",[13]; [21],30
same,"Plant response rating, Ragweed",[13]; [23],0
same,"Plant response rating, Ryegrass, Italian",[14]; [21],50
same,"Plant response rating, Ryegrass, Italian",[14]; [23],20
same,"Plant response rating, Wheat",[15]; [21],30
same,"Plant response rating, Wheat",[15]; [23],0
same,"Plant response rating, Barnyardgrass",[16],55
same,"Plant response rating, Ducksalad",[17],100
same,"Plant response rating, Rice",rice (Oryra sativa),15
same,"Plant response rating, Sedge, Umbrella",[18],0
O=C1NCC(c2cc(C(F)(F)F)ccc2F)C1C(=O)Nc1ccc(F)cc1F (stereo not drawn) [Compound 595],"Plant response rating, Kochia",Kochia (Kochia scoparia) [1]; [24],40
same,"Kochia plant response rating (0 to 100 scale, 0 is no effect, 100 is complete control)","Kochia (Kochia scoparia) [1]; Preemergence, 500 g ai/ha",50
same,"Plant response rating, Barnyardgrass",[2]; [24],90
same,"Barnyardgrass plant response rating (0 to 100 scale, 0 is no effect, 100 is complete control)","[2]; Preemergence, 500 g ai/ha",90
same,"Plant response rating, Foxtail, Giant",[3]; [24],90
same,"Foxtail, Giant plant response rating (0 to 100 scale, 0 is no effect, 100 is complete control)","[3]; Preemergence, 500 g ai/ha",90
same,"Plant response rating, Pigweed",[4]; [24],30
same,"Pigweed plant response rating (0 to 100 scale, 0 is no effect, 100 is complete control)","[4]; Preemergence, 500 g ai/ha",30
same,"Plant response rating, Ragweed",[5]; [24],0
same,"Ragweed plant response rating (0 to 100 scale, 0 is no effect, 100 is complete control)","[5]; Preemergence, 500 g ai/ha",30
same,"Plant response rating, Ryegrass, Italian",[6]; [24],20
same,"Ryegrass, Italian plant response rating (0 to 100 scale, 0 is no effect, 100 is complete control)","[6]; Preemergence, 500 g ai/ha",40
same,"Plant response rating, Galium",[7]; [25],0
same,"Plant response rating, Galium",[7]; [26],20
same,"Plant response rating, Kochia",Kochia (Kochia scoparia) [8]; [25],0
same,"Plant response rating, Kochia",Kochia (Kochia scoparia) [8]; [26],30
same,"Plant response rating, Barnyardgrass",[9]; [25],90
same,"Plant response rating, Barnyardgrass",[9]; [26],90
same,"Plant response rating, Blackgrass",[10]; [25],20
same,"Plant response rating, Blackgrass",[10]; [26],40
same,"Plant response rating, Corn",corn (Zea mays); [25],30
same,"Plant response rating, Corn",corn (Zea mays); [26],60
same,"Plant response rating, Foxtail, Giant",[11]; [25],90
same,"Plant response rating, Foxtail, Giant",[11]; [26],90
same,"Plant response rating, Pigweed",[12]; [25],20
same,"Plant response rating, Pigweed",[12]; [26],30
same,"Plant response rating, Ragweed",[13]; [25],0
same,"Plant response rating, Ragweed",[13]; [26],0
same,"Plant response rating, Ryegrass, Italian",[14]; [25],20
same,"Plant response rating, Ryegrass, Italian",[14]; [26],40
same,"Plant response rating, Wheat",[15]; [25],30
same,"Plant response rating, Wheat",[15]; [26],50
same,"Plant response rating, Barnyardgrass",[16],50
same,"Plant response rating, Ducksalad",[17],80
same,"Plant response rating, Rice",rice (Oryra sativa),20
same,"Plant response rating, Sedge, Umbrella",[18],70
